Measurements published in patent EP0406297B1, “Medical use of neuropeptide Antagonist G” (IMPERIAL CANCER RESEARCH TECHNOLOGY LIMITED, priority 1988, dated 1996).
pIC50: −log10 of the molar value. Residues, ends and D or L forms follow the SMILES beside them.

Key:
[1] = system: Swiss 3T3 cells; settings: for pIC50: read-out: IC50 for inhibition of mitogenesis induced by bradykinin, 9.4 nM bradykinin, 1 µg/ml insulin
[2] = system: vasopressin receptor; settings: Swiss 3T3 cells; cited from earlier work
[3] = system: Swiss 3T3 cells; settings: cited from earlier work
[4] = system: small cell lung cancer (SCLC) cell line; assay: growth in vitro of small cell lung cancer cell lines; assay type: cell-based
Description: The ability of antagonists A, D and G to inhibit the growth in vitro of a small cell lung cancer (SCLC) cell line was tested. The cell lines used were • a) H69 and H128 from the ATCC in Maryland USA; • b) H209, H345 and H510A obtained from Dr. A. Gazdar at NCI, NIH, Maryland USA; • c) UCH25 from Dr. P. Beverley, University College, London, England.

[5] = system: Swiss 3T3 cells; settings: earlier patent application and references 10, 11; cited from earlier work
[6] = system: SCLC cell lines; assay: calcium mobilisation tests in SCLC cell lines; assay type: cell-based; settings: 20 µM
Description: These responses can be blocked by 20 µM antagonist D in 3 of 3 lines tested (H69, H345, H510A) and by 20 µM antagonist G in H510A.

[7] = system: Swiss 3T3 cells; assay: vasopressin-stimulated DNA synthesis in Swiss 3T3 cells; assay type: cell-based, murine
[8] = system: Swiss 3T3 cells; assay: specificity: DNA synthesis with a variety of other mitogens in Swiss 3T3 cells; assay type: cell-based, murine
[9] = system: Swiss 3T3 cells; assay: GRP-induced DNA synthesis ([3H]thymidine incorporation) in quiescent Swiss 3T3 cells; assay type: cell-based, murine
[10] = system: bombesin receptor; settings: Swiss 3T3 cells; cited from earlier work

CC(C)C[C@H](NC(=O)[C@H](CC(C)C)NC(=O)[C@@H](Cc1c[nH]c2ccccc12)NC(=O)[C@H](Cc1ccccc1)NC(=O)[C@@H](Cc1c[nH]c2ccccc12)NC(=O)[C@H](CCC(N)=O)NC(=O)[C@H](CCC(N)=O)NC(=O)[C@@H]1CCCN1C(=O)[C@H](CCCCN)NC(=O)[C@H]1CCCN1C(=O)[C@H](N)CCCNC(=N)N)C(N)=O [antagonist A, D-Arg-D-Pro-Lys-Pro-Gln-Gln-D-Trp-Phe-D-Trp-Leu-Leu-NH2] (HELM PEPTIDE1{[dR].[dP].K.P.Q.Q.[dW].F.[dW].L.L.[am]}$$$$V2.0)
pIC50 [1]: 4.05
inhibition of [3H]vasopressin binding [2]: inhibit
inhibition of vasopressin-stimulated DNA synthesis [3]: inhibit
concentrations effective in inhibiting growth of SCLC ([4]; H69, H82, H128, H417 and UCH25): 50 to 150 µM
cell lines in which growth inhibition was found, of cell lines tested ([4]; SCLC cell lines): 5 of 5

CC(C)C[C@H](NC(=O)[C@H](CC(C)C)NC(=O)[C@@H](Cc1c[nH]c2ccccc12)NC(=O)[C@H](Cc1ccccc1)NC(=O)[C@@H](Cc1c[nH]c2ccccc12)NC(=O)[C@H](CCC(N)=O)NC(=O)[C@@H](Cc1ccccc1)NC(=O)[C@@H]1CCCN1C(=O)[C@H](CCCCN)NC(=O)[C@@H]1CCCN1C(=O)[C@H](N)CCCNC(=N)N)C(N)=O [antagonist D, D-Arg-Pro-Lys-Pro-D-Phe-Gln-D-Trp-Phe-D-Trp-Leu-Leu-NH2] (HELM PEPTIDE1{[dR].P.K.P.[dF].Q.[dW].F.[dW].L.L.[am]}$$$$V2.0)
potency as bombesin antagonist relative to antagonist A [5]: 5-10 fold
pIC50 [1]: 5.08
SCLC lines in which the Ca2+ responses were blocked, of lines tested [6]: 3 of 3
transient elevation of intracellular [Ca2+] in response to bradykinin, GRP and vasopressin ([6]; H69, H345, H510A): blocked
inhibition of vasopressin-induced DNA synthesis ([7]; 20 µM antagonist D, LψLB at concentrations that strongly inhibited GRP-induced mitogenesis (1 µM)): potent inhibitor
inhibition of [3H]vasopressin binding [2]: inhibit
inhibition of vasopressin-stimulated DNA synthesis [3]: inhibit
inhibition of mitogenesis stimulated by EGF, PDGF, phorbol dibutyrate, cholera toxin and 8-bromo-cAMP [8]: Neither of them inhibited
effect against various bombesin-like peptides (DNA synthesis) ([8]; GRP 3.6 nM, bombesin 1.2 nM, litorin 1.8 nM, 20 µM antagonist D or 1 µM LψLB): effective
inhibition of mitogenesis stimulated by VIP ([8]; VIP 3.0 nM, 20 µM antagonist D or 1 µM LψLB): Neither antagonist D nor [Leu^13-ψ(CH2NH)Leu^14]bombesin inhibited
increase in potency against each mitogen relative to antagonist A ([8]; mitogens bombesin/GRP, bradykinin, vasopressin): 5-10 fold
potency in inhibiting growth of SCLC relative to Antagonist A [4]: 5-10 fold
cell lines in which growth inhibition was found, of cell lines tested ([4]; SCLC cell lines): 6 of 6
concentration that abolishes cell growth ([4]; SCLC cell lines): 40 to 50 µM

CSCC[C@H](NC(=O)[C@H](CC(C)C)NC(=O)[C@@H](Cc1c[nH]c2ccccc12)NC(=O)[C@H](Cc1ccccc1)N(C)C(=O)[C@@H](Cc1c[nH]c2ccccc12)NC(=O)[C@@H](N)CCCNC(=N)N)C(N)=O [antagonist G, Arg.D-Trp.MePhe.D-Trp-Leu-Met-NH2] (HELM PEPTIDE1{R.[dW].[meF].[dW].L.M.[am]}$$$$V2.0)
potency as antagonist of growth induced by bradykinin, compared with Antagonist D ([1]; Swiss 3T3 cells): less potent
transient elevation of intracellular [Ca2+] in response to bradykinin, GRP and vasopressin ([6]; H510A): blocked
potency as antagonist of vasopressin induced cell growth, compared with Antagonist D ([7]; Swiss 3T3 cells): as potent as Antagonist D
potency as antagonist of growth induced by GRP, compared with Antagonist D [9]: less potent
inhibition of growth in SCLC cells, compared with antagonist D ([4]; H69, H209, H345 and H510A): equipotent with antagonist D
cell lines in which growth inhibition was found, of cell lines tested ([4]; SCLC cell lines): 4 of 4

Arg-Pro-Lys-Pro-Gln-Gln-Phe-Phe-Gly-Leu-Met-NH2 [substance P]
binding of [125I]GRP [10]: neither inhibits
